Data published in ChEMBL document CHEMBL1156578, “Countercurrent separation of natural products” (J Nat Prod, 2008).

Legend:
[1] = Octanol-water partition coefficient, log KOW in heptane-ethyl alcohol-water (4:1:4); format: physicochemical
[2] = Partition coefficient, log K in n-butyl alcohol-ethyl acetate-water by shake flask method (1:4:5); format: physicochemical
[3] = Partition coefficient, log K in n-hexane-ethyl acetate-ethyl alcohol-water (3:7:3:7); format: physicochemical
[4] = Partition coefficient, log K in n-hexane-ethyl acetate-ethyl alcohol-water (5:5:3:7); format: physicochemical
[5] = Partition coefficient, log K in n-hexane-ethyl acetate-ethyl alcohol-water (3:7:1:9); format: physicochemical
[6] = Partition coefficient, K in n-butyl alcohol-ethyl acetate-water by shake flask method (2:3:5)
[7] = Partition coefficient, log K in n-hexane-ethyl acetate-ethyl alcohol-water (1:9:1:9); format: physicochemical

SMILES	log K [1]	log K [2]	log K [3]	log K [4]	log K [5]	K [6]	log K [7]
CCNC(=O)c1ccccc1	1.51	–	–	–	–	–	–
COc1ccc(/C=C/C(=O)O)cc1OC [O,O'-DIMETHYLCAFFEIC ACID]	1.56	–	–	–	–	–	–
COc1ccc([C@@H]2OC[C@H]3[C@@H]2CO[C@@H]3c2ccc(O[C@@H]3O[C@H](CO)[C@@H](O)[C@H](O)[C@H]3O)c(OC)c2)cc1OC [PHILLYRIN]	–	3.87	0.246	0.099	0.312	6.25	0.799
